Test results published in article PMC10368966, “Safety and efficacy of AK0529 in respiratory syncytial virus‐infected infant patients: A phase 2 proof‐of‐concept trial” (Influenza and Other Respiratory Viruses, 2023).
Where “and” joins values, the source holds several entries; their conditions need not be identical. Equal values may be shown once. Entries after “also recorded” stand apart in the source; their conditions may differ. Marks after values point to notes of the source that are not given here.

Experiments:
[1] = test system: laboratory strains of RSV-A and RSV-B; assay: Cytopathic effect (CPE) assay using Hep-2 cells; type: cell-based, human RSV; conditions: human respiratory syncytial virus
Protocol: The EC90 value was determined in the presence of the known plasma protein binding in the CPE assay. […] To achieve a target efficacious concentration in humans, it was expected that a minimum target of 5 × EC90 value, or approximately 40 ng/mL should be attained. To maintain the effectiveness, this target Ctrough level was required to be achieved across the dosing interval.

[2] = Phase 2 study: safety and tolerability (adverse events); type: in vivo, human (infants)
Protocol: (§1) Safety and tolerability was evaluated by clinical assessment of safety data, including laboratory data, electrocardiographic data, vital signs, and adverse events (AEs).
Clinical safety and tolerability were assessed on the safety population, comprising all subjects who received ≥1 dose of study drug. Clinical variables were evaluated in the full analysis population, which included all subjects who received a dose of study drug and for whom ≥1 post‐treatment assessment was available. Pharmacokinetic analysis was performed on those subjects in the safety population for whom both pre‐ and post‐dose samples were available.

RSV [3] = test system: RSV; design: method as in PMID 31194544; conditions: orally administered ref 9; cited from earlier work
RSV infection = assay: Phase 2 study: Wang Respiratory Score; type: in vivo, human (infants); conditions: for Hodges–Lehmann estimation of between-group difference in Wang Respiratory Score: Part 2, 2 mg/kg vs placebo, 96 h
[4] = Phase 2 study: AST and ALT shift evaluation; type: in vivo, human (infants)
Protocol: as §1
In study Part 1, no formal sample size calculation was performed. For Part 2, it was calculated that a sample size of 16 patients in each active treatment group would provide >90% power to detect a 50% reduction (mean ratio of 0.5) in RSV viral load AUC with AK0529 as compared with placebo, using a one‐sided significance level of 0.05, two‐sample equal variance t‐test, and assuming a 0.3 variation coefficient of the placebo for viral load. These assumptions were based on viral challenge models of early treatment in adults.[3] For the transaminase shift analysis, the Chi‐square test and Fisher's exact test were used, as appropriate, to test for differences between active treatment and placebo.

[5] = design: method as in Supporting Information; conditions: multiple doses up to 300 mg bid ref Supporting Information; cited from earlier work
RSV [6] = assay: Phase 2 study: RSV viral load by quantitative reverse-transcription PCR on nasopharyngeal swab or aspirate; type: in vivo, human (infants); conditions: for greater reduction in median viral load than placebo: Part 2, 2 mg/kg bid, not statistically significant
From the text: This was a double‐blind, placebo‐controlled, randomized, multicenter study with the primary objective to evaluate the safety and tolerability of single and multiple oral doses of AK0529. Secondary objectives were to evaluate the effect of AK0529 on Wang Respiratory Score, to determine the effects of treatment on viral load, and to characterize the pharmacokinetics (PK) of single and multiple AK0529 doses.
The study consisted of two parts. In both parts, subjects were randomized in a 2:1 ratio to receive active treatment or placebo. Subjects were stratified by age (6 to 24 months in Cohorts 1 and 3, and 1 to <6 months in Cohorts 2 and 4).
Part 1 was a single‐dose study with a 7‐day follow‐up. The doses administered to patients in Cohort 1 included 4, 2, and 1 mg/kg. The Safety Review Committee (SRC) reviewed PK and safety data after each of the sets of three patients, before further enrollment of subjects, and recommended 0.5 and 1 mg/kg as the doses for patients in Cohort 2.
In Part 2, subjects received AK0529 or placebo over 5 days and were followed until day 14 post‐initial dose. The doses in Cohort 3 included 1 and 0.5 mg/kg bid. In Cohort 4, the doses included 2, 1 and 0.5 mg/kg bid.

[7] = design: method as in Study AK0529-1001; conditions: single doses of 100 mg and above ref Study AK0529-1001; cited from earlier work
[8] = TEAE, preferred term, AK0529 N=49
[9] = TEAE, system organ class, AK0529 N=49
[10] = AK0529 n = 38, worst shift category
[11] = AK0529 n = 39, worst shift category

Compound: Cc1ccc2nc(N3CCS(=O)(=O)c4ccccc4C3)nc(NCC3(N)COC3)c2c1 [AK0529, ziresovir]
- minimum target trough concentration (5 × EC90) ([1]; HEp-2, target Ctrough in humans, read-out: 5 × EC90 value (minimum target efficacious concentration)): 0.04 µg/mL
- EC90 ([1]; Hep-2 cells, CPE assay, read-out: EC90 of the RSV-induced reduction of cell viability (average)): 5 nM and 0.0022 µg/mL
- Subjects with any AEs ([2]; AK0529 all doses N = 49): 25 (51.0%) n (%)
- Subjects with any TEAEs ([2]; AK0529 all doses N = 49): 24 (49.0%) n (%)
- Subjects with any TEAEs induced withdrawal ([2]; AK0529 all doses N = 49): 0 n (%)
- Subjects with any TEAEs leading to death ([2]; AK0529 all doses N = 49): 0 n (%)
- Subjects with any drug related TEAEs ([2]; AK0529 all doses N = 49): 3 (6.1%) ^a n (%)
- Subjects with any grade ≥3 TEAEs ([2]; AK0529 all doses N = 49): 2 (4.1%) ^c n (%)
- Subjects with any serious TEAEs ([2]; AK0529 all doses N = 49, two cases of unrelated pneumonia): 2 (4.1%) ^b n (%)
- patients reporting grade ≥1 TEAEs ([2]; AK0529 group 24/49): 49.0%
- subjects with Grade 1 TEAE considered drug-related by the investigator ([2]; AK0529 group, three subjects): 6%
- patients experiencing a serious TEAE ([2]; AK0529 group, two of 49, none related to drug treatment): 4.1%
- withdrawals or deaths because of TEAEs ([2]; AK0529 groups): No withdrawals or deaths; also recorded: none led to death or withdrawal from the study
- patients with grade ≥3 treatment-emergent adverse events ([2]; AK0529 groups 2/49): 4.1%
- Acute tonsillitis [2, 8]: 1 (2.0%) n (%)
- Anemia [2, 8]: 1 (2.0%) n (%)
- Aspartate aminotransferase increased [2, 8]: 3 (6.1%) n (%)
- Candida infection [2, 8]: 1 (2.0%) n (%)
- Conjunctivitis [2, 8]: 1 (2.0%) n (%)
- Constipation [2, 8]: 0 n (%)
- Dermatitis [2, 8]: 1 (2.0%) n (%)
- Dermatitis diaper [2, 8]: 4 (8.2%) n (%)
- Diarrhea [2, 8]: 2 (4.1%) n (%)
- Epistaxis [2, 8]: 2 (4.1%) n (%)
- Erythema of eyelid [2, 8]: 1 (2.0%) n (%)
- Eye pruritus [2, 8]: 0 n (%)
- Flatulence [2, 8]: 1 (2.0%) n (%)
- Gastrointestinal inflammation [2, 8]: 1 (2.0%) n (%)
- Hematochezia [2, 8]: 0 n (%)
- Hepatitis [2, 8]: 2 (4.1%) n (%)
- Hyperkalemia [2, 8]: 2 (4.1%) n (%)
- Hyperphosphatemia [2, 8]: 1 (2.0%) n (%)
- Impaired gastric emptying [2, 8]: 0 n (%)
- Injection site extravasation [2, 8]: 1 (2.0%) n (%)
- Leukocytosis [2, 8]: 1 (2.0%) n (%)
- Metabolic acidosis [2, 8]: 1 (2.0%) n (%)
- Nasopharyngitis [2, 8]: 1 (2.0%) n (%)
- Oral candidiasis [2, 8]: 1 (2.0%) n (%)
- Otitis media acute [2, 8]: 2 (4.1%) n (%)
- Pneumonia [2, 8]: 3 (6.1%) n (%)
- Pyrexia [2, 8]: 1 (2.0%) n (%)
- Rash [2, 8]: 1 (2.0%) n (%)
- Rotavirus test positive [2, 8]: 0 n (%)
- Thrombocytosis [2, 8]: 1 (2.0%) n (%)
- Transaminases increased [2, 8]: 2 (4.1%) n (%)
- Upper respiratory tract infection [2, 8]: 1 (2.0%) n (%)
- Urine ketone body present [2, 8]: 1 (2.0%) n (%)
- Vomiting [2, 8]: 1 (2.0%) n (%)
- Blood and lymphatic system disorders [2, 9]: 3 (6.1%) n (%)
- Eye disorders [2, 9]: 1 (2.0%) n (%)
- Gastrointestinal disorders [2, 9]: 5 (10.2%) n (%)
- General disorders and administration site conditions [2, 9]: 1 (2.0%) n (%)
- Hepatobiliary disorders [2, 9]: 2 (4.1%) n (%)
- Infections and infestations [2, 9]: 5 (10.2%) n (%)
- Injury, poisoning and procedural complications [2, 9]: 1 (2.0%) n (%)
- Investigations [2, 9]: 6 (12.2%) n (%)
- Metabolism and nutrition disorders [2, 9]: 4 (8.2%) n (%)
- Respiratory, thoracic and mediastinal disorders [2, 9]: 6 (12.2%) n (%)
- Skin and subcutaneous tissue disorders [2, 9]: 6 (12.2%) n (%)
- overall tolerability ([2]; hospitalized RSV-infected infant patients): well tolerated
- Bacterial infection ([2]; human, in vivo): 0 n (%)
- antiviral efficacy (RSV [3]): demonstrated antiviral efficacy
- median Wang Respiratory Score change (RSV infection; Part 1, single dose, baseline to 24 h, one-sided p = 0.004 combined AK0529 groups vs placebo): decreased from baseline to 24 h in a dose‐related manner
- median reduction in Wang Respiratory Score from baseline (RSV infection; Part 2, 2 mg/kg bid, baseline to 96 h, 95% CI −4.51, −2.03, placebo −2.0, one-sided p = 0.031): −4.0
- Hodges–Lehmann estimation of between-group difference in Wang Respiratory Score (RSV infection; full analysis population, 95% CI −2, 1): −1
- Hodges–Lehmann estimation of between-group difference in Wang Respiratory Score (RSV infection; two cases of bacterial pneumonia excluded, 95% CI −2, 0, p = 0.009): −1
- patients achieving disease remission (Wang Respiratory Score ≤1) (RSV infection; post-hoc, 2 mg/kg bid, by Day 5, 8/11 patients, placebo 31%, p 0.0412): 73%
- ALT shift: Abnormal CS to abnormal NCS ([4]; AK0529 n = 38): 0 n (%)
- ALT shift: Abnormal CS to normal ([4]; AK0529 n = 38): 0 n (%)
- ALT shift: Abnormal NCS to normal ([4]; AK0529 n = 38): 1 (2.6%) n (%)
- ALT shift: No change ([4]; AK0529 n = 38): 34 (89.5%) n (%)
- ALT shift: Abnormal NCS to abnormal CS [4, 10]: 1 (2.6%) n (%)
- ALT shift: Normal to abnormal CS [4, 10]: 1 (2.6%) n (%)
- ALT shift: Normal to abnormal NCS [4, 10]: 1 (2.6%) n (%)
- AST shift: Abnormal CS to abnormal NCS ([4]; AK0529 n = 39): 1 (2.6%) n (%)
- AST shift: Abnormal CS to normal ([4]; AK0529 n = 39): 1 (2.6%) n (%)
- AST shift: Abnormal NCS to normal ([4]; AK0529 n = 39): 2 (5.1%) n (%)
- AST shift: No change ([4]; AK0529 n = 39): 29 (74.4%) n (%)
- AST shift: Abnormal NCS to abnormal CS [4, 11]: 0 n (%)
- AST shift: Normal to abnormal CS [4, 11]: 2 (5.1%) n (%)
- AST shift: Normal to abnormal NCS [4, 11]: 4 (10.3%) n (%)
- association between exposure to active drug and deterioration / shifts in transaminase levels (ALT, AST) ([4]; vs placebo, Fisher's exact p = 0.516 (ALT), p = 0.644 (AST)): No statistically significant differences; also recorded: no association was found
- tolerability [5]: good tolerability
- reductions in viral load relative to placebo (RSV [6]; Part 1, 24 h after a single dose): < 1 log10 PFUe/mL
- greater reduction in median viral load than placebo (RSV [6]; 72 h): 1.25 log10 PFUe/mL
- greater reduction in median viral load than placebo (RSV [6]; 96 h post-dose): 1.73 log10 PFUe/mL
- mean plasma concentration levels at 12 hours post-dose [7]: > 50 ng/mL
